# Laboratory results from ChEMBL document CHEMBL4513139, “CO-ADD screening of University of Strathclyde (UK) compounds”.
# Test system: Escherichia coli
# Experiment: microbe, parasite or virus in culture
# Settings: ATCC 25922, 18 h, ASSAY_TEST Inhibition of Bacterial Growth, detection method Absorption (OD600), MEDIA CAMHB, plate type 384well, NBS, CORNING #3640
# Description: Antibacterial activity against Escherichia coli ATCC 25922 (CO-ADD:GN_001); MIC in CAMBH media using NBS plates, by OD(600)
row,MIC,Compound
1,> 32 µg/mL,CN(C)CCCNC(=O)c1cc(NC(=O)c2cc(NC(=O)c3cc(NC(=N)c4cc5ccccc5cn4)cn3C)cn2C)cn1C.O=C(O)C(F)(F)F.O=C(O)C(F)(F)F
2,> 32 µg/mL,CC(C)CCn1cc(NC(=O)c2cc(NC(=O)c3cc(NC(=N)N)cn3C)cn2C)cc1C(=O)NCCCN(C)C.O=C(O)C(F)(F)F.O=C(O)C(F)(F)F
3,> 32 µg/mL,CC(C)CCc1sc(NC(=O)c2cc(NC(=O)c3cc(NC(=O)c4sc(N)nc4C(F)(F)F)cn3C)cn2C)nc1C(=O)NCCCN(C)C.O=C(O)C(F)(F)F
4,> 32 µg/mL,Cn1cc(NC(=O)c2cc(NC(=O)c3ccc(/C=C/c4ccc(F)cc4)cc3)cn2C)cc1C(=O)NCCN1CCOCC1.O=C(O)C(F)(F)F
5,> 32 µg/mL,CC(C)n1cc(NC(=O)c2cc(NC=O)cn2C)cc1C(=O)Nc1cc(C(=O)NCCCN(C)C)n(C)c1.O=C(O)C(F)(F)F
6,> 32 µg/mL,Cn1cc(NC(=O)c2cc(NC(=O)c3ccc(/C=C/c4ccc5ccccc5c4)cc3)cn2C)cc1C(=O)NCCN1CCOCC1.O=C(O)C(F)(F)F

# Test system: Staphylococcus aureus
# Experiment: microbe, parasite or virus in culture
# Settings: ATCC 43300, 18 h, ASSAY_TEST Inhibition of Bacterial Growth, detection method Absorption (OD600), MEDIA CAMHB, plate type 384well, NBS, CORNING #3640
# Description: Antibacterial activity against Staphylococcus aureus MRSA ATCC 43300 (CO-ADD:GP_020); MIC in CAMBH media, using NBS plates, by OD(600)
row,MIC,Compound
1,> 32 µg/mL,CN(C)CCCNC(=O)c1cc(NC(=O)c2cc(NC(=O)c3cc(NC(=N)c4cc5ccccc5cn4)cn3C)cn2C)cn1C.O=C(O)C(F)(F)F.O=C(O)C(F)(F)F
2,> 32 µg/mL,CC(C)CCn1cc(NC(=O)c2cc(NC(=O)c3cc(NC(=N)N)cn3C)cn2C)cc1C(=O)NCCCN(C)C.O=C(O)C(F)(F)F.O=C(O)C(F)(F)F
3,8 µg/mL,CC(C)CCc1sc(NC(=O)c2cc(NC(=O)c3cc(NC(=O)c4sc(N)nc4C(F)(F)F)cn3C)cn2C)nc1C(=O)NCCCN(C)C.O=C(O)C(F)(F)F
4,> 32 µg/mL,Cn1cc(NC(=O)c2cc(NC(=O)c3ccc(/C=C/c4ccc(F)cc4)cc3)cn2C)cc1C(=O)NCCN1CCOCC1.O=C(O)C(F)(F)F
5,> 32 µg/mL,CC(C)n1cc(NC(=O)c2cc(NC=O)cn2C)cc1C(=O)Nc1cc(C(=O)NCCCN(C)C)n(C)c1.O=C(O)C(F)(F)F
6,> 32 µg/mL,Cn1cc(NC(=O)c2cc(NC(=O)c3ccc(/C=C/c4ccc5ccccc5c4)cc3)cn2C)cc1C(=O)NCCN1CCOCC1.O=C(O)C(F)(F)F

# Test system: HEK293
# Experiment: cells
# Type: functional, Homo sapiens, ATCC CRL1573
# Settings: Homo sapiens, ATCC CRL1573, HEK293; ASSAY_TEST Inhibition of Cell Viability; detection method Resazurin; Fluorescence (ex560/em590); MEDIA DMEM with 10% FBS; plate type 384well; TC; CORNING #3712; time 18 hr; read-out: CC50
row,Compound,CC50
1,CN(C)CCCNC(=O)c1cc(NC(=O)c2cc(NC(=O)c3cc(NC(=N)c4cc5ccccc5cn4)cn3C)cn2C)cn1C.O=C(O)C(F)(F)F.O=C(O)C(F)(F)F,> 32 µg/mL
2,CC(C)CCn1cc(NC(=O)c2cc(NC(=O)c3cc(NC(=N)N)cn3C)cn2C)cc1C(=O)NCCCN(C)C.O=C(O)C(F)(F)F.O=C(O)C(F)(F)F,> 32 µg/mL
3,CC(C)CCc1sc(NC(=O)c2cc(NC(=O)c3cc(NC(=O)c4sc(N)nc4C(F)(F)F)cn3C)cn2C)nc1C(=O)NCCCN(C)C.O=C(O)C(F)(F)F,2.48 µg/mL
4,Cn1cc(NC(=O)c2cc(NC(=O)c3ccc(/C=C/c4ccc(F)cc4)cc3)cn2C)cc1C(=O)NCCN1CCOCC1.O=C(O)C(F)(F)F,> 32 µg/mL
5,CC(C)n1cc(NC(=O)c2cc(NC=O)cn2C)cc1C(=O)Nc1cc(C(=O)NCCCN(C)C)n(C)c1.O=C(O)C(F)(F)F,> 32 µg/mL
6,Cn1cc(NC(=O)c2cc(NC(=O)c3ccc(/C=C/c4ccc5ccccc5c4)cc3)cn2C)cc1C(=O)NCCN1CCOCC1.O=C(O)C(F)(F)F,> 32 µg/mL

# Test system: Pseudomonas aeruginosa
# Experiment: microbe, parasite or virus in culture
# Settings: ATCC 27853, 18 h, ASSAY_TEST Inhibition of Bacterial Growth, detection method Absorption (OD600), MEDIA CAMHB, plate type 384well, NBS, CORNING #3640
# Description: Antibacterial activity against Pseudomonas aeruginosa ATCC 27853 (CO-ADD:GN_042); MIC in CAMBH media using NBS plates, by OD(600)
row,MIC,Compound
1,> 32 µg/mL,CN(C)CCCNC(=O)c1cc(NC(=O)c2cc(NC(=O)c3cc(NC(=N)c4cc5ccccc5cn4)cn3C)cn2C)cn1C.O=C(O)C(F)(F)F.O=C(O)C(F)(F)F
2,> 32 µg/mL,CC(C)CCn1cc(NC(=O)c2cc(NC(=O)c3cc(NC(=N)N)cn3C)cn2C)cc1C(=O)NCCCN(C)C.O=C(O)C(F)(F)F.O=C(O)C(F)(F)F
3,> 32 µg/mL,CC(C)CCc1sc(NC(=O)c2cc(NC(=O)c3cc(NC(=O)c4sc(N)nc4C(F)(F)F)cn3C)cn2C)nc1C(=O)NCCCN(C)C.O=C(O)C(F)(F)F
4,> 32 µg/mL,Cn1cc(NC(=O)c2cc(NC(=O)c3ccc(/C=C/c4ccc(F)cc4)cc3)cn2C)cc1C(=O)NCCN1CCOCC1.O=C(O)C(F)(F)F
5,> 32 µg/mL,CC(C)n1cc(NC(=O)c2cc(NC=O)cn2C)cc1C(=O)Nc1cc(C(=O)NCCCN(C)C)n(C)c1.O=C(O)C(F)(F)F
6,> 32 µg/mL,Cn1cc(NC(=O)c2cc(NC(=O)c3ccc(/C=C/c4ccc5ccccc5c4)cc3)cn2C)cc1C(=O)NCCN1CCOCC1.O=C(O)C(F)(F)F

# Test system: Cryptococcus neoformans
# Experiment: not given
# Settings: not given
row,MIC,Compound
1,8 µg/mL,CN(C)CCCNC(=O)c1cc(NC(=O)c2cc(NC(=O)c3cc(NC(=N)c4cc5ccccc5cn4)cn3C)cn2C)cn1C.O=C(O)C(F)(F)F.O=C(O)C(F)(F)F
2,32 µg/mL,CC(C)CCn1cc(NC(=O)c2cc(NC(=O)c3cc(NC(=N)N)cn3C)cn2C)cc1C(=O)NCCCN(C)C.O=C(O)C(F)(F)F.O=C(O)C(F)(F)F
3,> 32 µg/mL,CC(C)CCc1sc(NC(=O)c2cc(NC(=O)c3cc(NC(=O)c4sc(N)nc4C(F)(F)F)cn3C)cn2C)nc1C(=O)NCCCN(C)C.O=C(O)C(F)(F)F
4,> 32 µg/mL,Cn1cc(NC(=O)c2cc(NC(=O)c3ccc(/C=C/c4ccc(F)cc4)cc3)cn2C)cc1C(=O)NCCN1CCOCC1.O=C(O)C(F)(F)F
5,> 32 µg/mL,CC(C)n1cc(NC(=O)c2cc(NC=O)cn2C)cc1C(=O)Nc1cc(C(=O)NCCCN(C)C)n(C)c1.O=C(O)C(F)(F)F
6,> 32 µg/mL,Cn1cc(NC(=O)c2cc(NC(=O)c3ccc(/C=C/c4ccc5ccccc5c4)cc3)cn2C)cc1C(=O)NCCN1CCOCC1.O=C(O)C(F)(F)F

# Test system: Acinetobacter baumannii
# Experiment: microbe, parasite or virus in culture
# Settings: ATCC 19606, 18 h, ASSAY_TEST Inhibition of Bacterial Growth, detection method Absorption (OD600), MEDIA CAMHB, plate type 384well, NBS, CORNING #3640
# Description: Antibacterial activity against Acinetobacter baumannii ATCC 19606 (CO-ADD:GN_034); MIC in CAMBH media using NBS plates, by OD600
row,MIC,Compound
1,> 32 µg/mL,CN(C)CCCNC(=O)c1cc(NC(=O)c2cc(NC(=O)c3cc(NC(=N)c4cc5ccccc5cn4)cn3C)cn2C)cn1C.O=C(O)C(F)(F)F.O=C(O)C(F)(F)F
2,> 32 µg/mL,CC(C)CCn1cc(NC(=O)c2cc(NC(=O)c3cc(NC(=N)N)cn3C)cn2C)cc1C(=O)NCCCN(C)C.O=C(O)C(F)(F)F.O=C(O)C(F)(F)F
3,> 32 µg/mL,CC(C)CCc1sc(NC(=O)c2cc(NC(=O)c3cc(NC(=O)c4sc(N)nc4C(F)(F)F)cn3C)cn2C)nc1C(=O)NCCCN(C)C.O=C(O)C(F)(F)F
4,> 32 µg/mL,Cn1cc(NC(=O)c2cc(NC(=O)c3ccc(/C=C/c4ccc(F)cc4)cc3)cn2C)cc1C(=O)NCCN1CCOCC1.O=C(O)C(F)(F)F
5,> 32 µg/mL,CC(C)n1cc(NC(=O)c2cc(NC=O)cn2C)cc1C(=O)Nc1cc(C(=O)NCCCN(C)C)n(C)c1.O=C(O)C(F)(F)F
6,> 32 µg/mL,Cn1cc(NC(=O)c2cc(NC(=O)c3ccc(/C=C/c4ccc5ccccc5c4)cc3)cn2C)cc1C(=O)NCCN1CCOCC1.O=C(O)C(F)(F)F

# Test system: Klebsiella pneumoniae
# Experiment: microbe, parasite or virus in culture
# Settings: ATCC 700603, 18 h, ASSAY_TEST Inhibition of Bacterial Growth, detection method Absorption (OD600), MEDIA CAMHB, plate type 384well, NBS, CORNING #3640
# Description: Antibacterial activity against Klebsiella pneumoniae MDR ATCC 70063 (CO-ADD:GN_003); MIC in CAMBH media using NBS plates, by OD(600)
row,MIC,Compound
1,> 32 µg/mL,CN(C)CCCNC(=O)c1cc(NC(=O)c2cc(NC(=O)c3cc(NC(=N)c4cc5ccccc5cn4)cn3C)cn2C)cn1C.O=C(O)C(F)(F)F.O=C(O)C(F)(F)F
2,> 32 µg/mL,CC(C)CCn1cc(NC(=O)c2cc(NC(=O)c3cc(NC(=N)N)cn3C)cn2C)cc1C(=O)NCCCN(C)C.O=C(O)C(F)(F)F.O=C(O)C(F)(F)F
3,> 32 µg/mL,CC(C)CCc1sc(NC(=O)c2cc(NC(=O)c3cc(NC(=O)c4sc(N)nc4C(F)(F)F)cn3C)cn2C)nc1C(=O)NCCCN(C)C.O=C(O)C(F)(F)F
4,> 32 µg/mL,Cn1cc(NC(=O)c2cc(NC(=O)c3ccc(/C=C/c4ccc(F)cc4)cc3)cn2C)cc1C(=O)NCCN1CCOCC1.O=C(O)C(F)(F)F
5,> 32 µg/mL,CC(C)n1cc(NC(=O)c2cc(NC=O)cn2C)cc1C(=O)Nc1cc(C(=O)NCCCN(C)C)n(C)c1.O=C(O)C(F)(F)F
6,> 32 µg/mL,Cn1cc(NC(=O)c2cc(NC(=O)c3ccc(/C=C/c4ccc5ccccc5c4)cc3)cn2C)cc1C(=O)NCCN1CCOCC1.O=C(O)C(F)(F)F

# Test system: Candida albicans
# Experiment: microbe, parasite or virus in culture
# Settings: ATCC 90028, ASSAY_TEST Inhibition of Fungal Growth, detection method Absorption (OD530), plate type 384well, NBS, CORNING #3640
# Description: Antifungal activity against Candida albicans ATCC 90028 (CO-ADD:FG_001); MIC in YNB media using NBS plates, by OD630
row,MIC,Compound
1,32 µg/mL,CN(C)CCCNC(=O)c1cc(NC(=O)c2cc(NC(=O)c3cc(NC(=N)c4cc5ccccc5cn4)cn3C)cn2C)cn1C.O=C(O)C(F)(F)F.O=C(O)C(F)(F)F
2,> 32 µg/mL,CC(C)CCn1cc(NC(=O)c2cc(NC(=O)c3cc(NC(=N)N)cn3C)cn2C)cc1C(=O)NCCCN(C)C.O=C(O)C(F)(F)F.O=C(O)C(F)(F)F
3,> 32 µg/mL,CC(C)CCc1sc(NC(=O)c2cc(NC(=O)c3cc(NC(=O)c4sc(N)nc4C(F)(F)F)cn3C)cn2C)nc1C(=O)NCCCN(C)C.O=C(O)C(F)(F)F
4,> 32 µg/mL,Cn1cc(NC(=O)c2cc(NC(=O)c3ccc(/C=C/c4ccc(F)cc4)cc3)cn2C)cc1C(=O)NCCN1CCOCC1.O=C(O)C(F)(F)F
5,> 32 µg/mL,CC(C)n1cc(NC(=O)c2cc(NC=O)cn2C)cc1C(=O)Nc1cc(C(=O)NCCCN(C)C)n(C)c1.O=C(O)C(F)(F)F
6,16 µg/mL,Cn1cc(NC(=O)c2cc(NC(=O)c3ccc(/C=C/c4ccc5ccccc5c4)cc3)cn2C)cc1C(=O)NCCN1CCOCC1.O=C(O)C(F)(F)F
